Measurements published in patent US7138361B2, “Herbicidal heterocycles” (E. I. du Pont de Nemours and Company, priority 2000, dated 2006).

Experiments:
Type in all cases: in vivo
[1] = test system: Surinam grass (Brachiaria decumbens); test: Test B postemergence; conditions: 13 to 15 days
Method in brief: (§1)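 Ratings on a 0 to 100 visual scale (100 complete control) compare treated plants with controls 13 to 15 days after application. Treatments were pre- or postemergence sprays of compound in non-phytotoxic solvent with surfactant.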

[2] = test system: barnyardgrass (Echinochloa crus-galli); test: Test B postemergence; conditions: 13 to 15 days
Method in brief: as §1

[3] = test system: blackgrass (Alopecurus myosuroides); test: Test B postemergence; conditions: 13 to 15 days
Method in brief: as §1

[4] = test system: cocklebur (Xanthium strumarium); test: Test B postemergence; conditions: 13 to 15 days
Method in brief: as §1

corn (Zea mays) [5] = test: Test B postemergence; conditions: 13 to 15 days
Method in brief: as §1

[6] = test system: crabgrass (Digitaria sanguinalis); test: Test B postemergence; conditions: 13 to 15 days
Method in brief: as §1

[7] = test system: giant foxtail (Setaria faberii); test: Test B postemergence; conditions: 13 to 15 days
Method in brief: as §1

[8] = test system: lambsquarters (Chenopodium album); test: Test B postemergence; conditions: 13 to 15 days
Method in brief: as §1

[9] = test system: morning glory (Ipomoea hederacea); test: Test B postemergence; conditions: 13 to 15 days
Method in brief: as §1

[10] = test system: pigweed (Amaranthus retroflexus); test: Test B postemergence; conditions: 13 to 15 days
Method in brief: as §1

[11] = test system: velvetleaf (Abutilon theophrasti); test: Test B postemergence; conditions: 13 to 15 days
Method in brief: as §1

[12] = test system: wheat (Triticum aestivum); test: Test B postemergence; conditions: 13 to 15 days
Method in brief: as §1

wild oat (Avena fatua) = test: Test B postemergence; conditions: 13 to 15 days
Method in brief: as §1

[13] = test system: Surinam grass (Brachiaria decumbens); test: Test B preemergence
Method in brief: as §1

[14] = test system: barnyardgrass (Echinochloa crus-galli); test: Test B preemergence
Method in brief: as §1

[15] = test system: cocklebur (Xanthium strumarium); test: Test B preemergence
Method in brief: as §1

corn (Zea mays) [16] = test: Test B preemergence
Method in brief: as §1

[17] = test system: crabgrass (Digitaria sanguinalis); test: Test B preemergence
Method in brief: as §1

[18] = test system: giant foxtail (Setaria faberii); test: Test B preemergence
Method in brief: as §1

[19] = test system: lambsquarters (Chenopodium album); test: Test B preemergence
Method in brief: as §1

[20] = test system: morning glory (Ipomoea hederacea); test: Test B preemergence
Method in brief: as §1

[21] = test system: pigweed (Amaranthus retroflexus); test: Test B preemergence
Method in brief: as §1

rice (Oryza saliva) [22] = test: Test B preemergence
Method in brief: as §1

[23] = test system: velvetleaf (Abutilon theophrasti); test: Test B preemergence
Method in brief: as §1

rice (Oryza saliva) [24] = test: Test C flooded paddy test; conditions: for Rice plant response rating: Flooded Paddy, scale 0 to 100, 0 no effect, 100 complete control; for Plant response rating, Rice: flooded paddy test, scale 0 to 100 (0 no effect, 100 complete control)
Method in brief: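 2-leaf-stage plants, flooded paddy; treated; greenhouse 12–14 days; compared with controls by eye; rated 0–100 (0 none, 100 complete control).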

Nightshade = test: Test C preemergence; conditions: Rate 250 g/ha, visual evaluation after 12 to 14 days
Sunflower = test: Test C preemergence; conditions: Rate 125 g/ha, scale 0 to 100, 0 no effect, 100 complete control
[25] = Rate 125 g/ha, scale 0 (no effect) to 100 (complete control)
[26] = Rate 500 g/ha, scale 0 to 100, 0 is no effect, 100 is complete control
[27] = Preemergence, Rate 500 g/ha, scale 0 to 100, 0 no effect, 100 complete control
[28] = preemergence, Rate 125 g/ha, scale of 0 to 100 where 0 is no effect and 100 is complete control, 13 to 15 days

Structure (SMILES): O=C1C(n2ccc(C3CCCCC3)n2)OCN1c1cccc(C(F)(F)F)c1 (stereo not drawn) [Compound 51]
- Plant response rating, Surinam grass [1, 25]: 0
- Plant response rating, Surinam grass [1, 26]: 0
- Plant response rating, Barnyardgrass [2, 25]: 0
- Plant response rating, Barnyardgrass [2, 26]: 0
- Plant response rating, Blackgrass [3, 25]: 0
- Plant response rating, Blackgrass [3, 26]: 0
- Plant response rating, Cocklebur [4, 25]: 0
- Plant response rating, Cocklebur [4, 26]: 0
- Plant response rating, Corn (corn (Zea mays) [5]; [25]): 0
- Plant response rating, Corn (corn (Zea mays) [5]; [26]): 0
- Plant response rating, Crabgrass [6, 25]: 0
- Plant response rating, Crabgrass [6, 26]: 20
- Plant response rating, Foxtail, Giant [7, 25]: 0
- Plant response rating, Foxtail, Giant [7, 26]: 0
- Plant response rating, Lambsquarters [8, 25]: 80
- Plant response rating, Lambsquarters [8, 26]: 90
- Plant response rating, Morningglory [9, 25]: 0
- Plant response rating, Morningglory [9, 26]: 0
- Plant response rating, Pigweed [10, 25]: 0
- Plant response rating, Pigweed [10, 26]: 80
- Plant response rating, Velvetleaf [11, 25]: 0
- Plant response rating, Velvetleaf [11, 26]: 0
- Plant response rating, Wheat [12, 25]: 0
- Plant response rating, Wheat [12, 26]: 0
- Plant response rating, Wild Oat (wild oat (Avena fatua); [25]): 0
- Plant response rating, Wild Oat (wild oat (Avena fatua); [26]): 0
- Plant response rating, Surinam grass [13, 27]: 20
- Plant response rating, Surinam grass [13, 28]: 0
- Plant response rating, Barnyardgrass [14, 27]: 80
- Plant response rating, Barnyardgrass [14, 28]: 80
- Plant response rating, Cocklebur [15, 27]: 0
- Plant response rating, Cocklebur [15, 28]: 0
- Plant response rating, Corn (corn (Zea mays) [16]; [27]): 0
- Plant response rating, Corn (corn (Zea mays) [16]; [28]): 0
- Plant response rating, Crabgrass [17, 27]: 100
- Plant response rating, Crabgrass [17, 28]: 100
- Plant response rating, Foxtail, Giant [18, 27]: 50
- Plant response rating, Foxtail, Giant [18, 28]: 0
- Plant response rating, Lambsquarters [19, 27]: 100
- Plant response rating, Lambsquarters [19, 28]: 100
- Plant response rating, Morningglory [20, 27]: 0
- Plant response rating, Morningglory [20, 28]: 0
- Plant response rating, Pigweed [21, 27]: 100
- Plant response rating, Pigweed [21, 28]: 0
- Plant response rating, Rice (rice (Oryza saliva) [22]; [27]): 0
- Plant response rating, Rice (rice (Oryza saliva) [22]; [28]): 0
- Plant response rating, Velvetleaf [23, 27]: 0
- Plant response rating, Velvetleaf [23, 28]: 0
- Rice plant response rating (rice (Oryza saliva) [24]; Rate 250 g/ha): 0
- Rice plant response rating (rice (Oryza saliva) [24]; Rate 500 g/ha): 0
- Plant response rating, Rice (rice (Oryza saliva) [24]; Rate 62 g/ha): 0
- Plant response rating, Rice (rice (Oryza saliva) [24]; Rate 125 g/ha): 0
- Plant response rating (0 to 100), Nightshade (Nightshade): 0
- Plant response rating, Sunflower (Sunflower): 0
